From paper PMC10051798, “Thiosemicarbazide Derivatives Targeting Human TopoIIα and IDO-1 as Small-Molecule Drug Candidates for Breast Cancer Treatment” (International Journal of Molecular Sciences, 2023)

Assays:
[1] = biological target: T1, BCRP in MCF-7 cells (Homo sapiens, UniProt Q9UNQ0); assay: MDR transporter activity assay, BCRP in MCF-7; assay type: cell-based; settings: MCF-7, 10 µg/mL, 24 h
T1 construct: endogenous in cells; host or cells: MCF-7 and MDA-MB-231 cells
T1 sequence (Q9UNQ0 1-655): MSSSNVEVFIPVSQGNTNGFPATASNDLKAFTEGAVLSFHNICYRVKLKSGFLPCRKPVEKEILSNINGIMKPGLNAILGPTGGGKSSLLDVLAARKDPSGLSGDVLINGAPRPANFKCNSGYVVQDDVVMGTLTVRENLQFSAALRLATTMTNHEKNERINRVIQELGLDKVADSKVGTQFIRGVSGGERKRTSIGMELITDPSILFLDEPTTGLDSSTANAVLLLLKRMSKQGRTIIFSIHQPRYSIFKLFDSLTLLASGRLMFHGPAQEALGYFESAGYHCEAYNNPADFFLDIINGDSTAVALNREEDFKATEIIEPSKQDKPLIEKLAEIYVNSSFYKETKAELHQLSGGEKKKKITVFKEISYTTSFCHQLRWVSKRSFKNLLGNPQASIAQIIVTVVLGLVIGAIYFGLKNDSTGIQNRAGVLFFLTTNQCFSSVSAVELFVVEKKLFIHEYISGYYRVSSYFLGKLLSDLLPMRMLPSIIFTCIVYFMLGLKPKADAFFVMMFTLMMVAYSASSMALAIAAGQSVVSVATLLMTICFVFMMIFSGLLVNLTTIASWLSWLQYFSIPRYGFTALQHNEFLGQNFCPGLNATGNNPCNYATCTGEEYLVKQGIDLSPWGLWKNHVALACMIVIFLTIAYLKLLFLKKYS
Description: (§1) An MDR Assay kit (Abcam, Cambridge, UK) was used following the manufacturer’s instructions. MCF-7 and MDA-MB-231 cells were incubated with compounds 1–3 (10 μg/mL and 20 μg/mL). After 24 h of incubation, the test cells were washed twice with 5 mL of PBS by centrifugation at 1200 rpm for 10 min. The supernatants were discarded and the cells were counted using a Scepter 3.0 handheld automated cell counter (Milipore, Burlington, MA, USA). Then, each of the tested samples was divided into three parts and analyzed. Tomeasure the activity of MDR1, MRP1 and BCRP (tubes 1–12), 5 μL of verapamil (MDR1 inhibitor) was added into tubes 1–3, 5 μL of MK-571 (MRP1 inhibitor) was added into tubes 4–6, 5 μL of noviobiocin (BCRP inhibitor) was added into tubes 7–9 and 125 μL DMEM with 1 μL of DMSO was added into tubes 10–12. Then, the samples were incubated at 37 °C for five minutes. After this time, 125 μL of Efflux Green Detection Reagent was added into tubes 1–12 and the samples were incubated for 30 min at 37 °C. After 25 min of incubation, 5 μL of PI was added to each tube. Thereafter, the samples were centrifuged for 10 min at 1200 rpm. The supernatants were discarded and the cells were resuspended in 500 μL of PBS and run on the flow cytometer immediately. Measurements were conducted on a BD FACSCanto II flow cytometer using FACSDiva software (version 6.1.3, BD Biosciences, San Diego, CA, USA). […]

[2] = system: MCF-7 cells; assay: Annexin V/propidium iodide flow cytometry (apoptosis), MCF-7; assay type: cell-based, human; settings: MCF-7, 24 h, concentration not given
Excerpt: (§2) Flow cytometry analyses for apoptosis induction by the compounds 1–3 and etoposide wereperformedusing an FITC Annexin V Apoptosis Detection Kit II (BD Pharmingen, San Diego, CA, USA). The rationale of the assay is based on the externalization of phosphatidylserine on the surface of apoptotic cells. In early and late apoptotic cells, the phosphatidylserine translocates into the outer layer of the membrane, which allows annexin V-FITC to attach. Propidium iodide (PI) is, in turn, a fluorescent dye that penetrates into the late apoptotic and necrotic cells with impaired cell membrane integrity. Therefore, using annexin V and PI, it is possible to distinguish four groups of cells: living cells, early apoptotic cells, late apoptotic cells and necrotic cells. MCF-7 and MDA-MB-231 cells were incubated with 10 and 20 µg/mL of compounds 1–3 and etoposide (reference drug) for 24 h. After incubation, the cells were dyed with FITC-labeled annexin V and PI. The analysis was performed on a BD FACS Canto II flow cytometer using FACSDiva software (version 6.1.3, BD Biosciences Systems, San Diego, CA, USA). The equipment was calibrated with BD Cytometer Setup and Tracking Beads (BDBiosciences, San Diego, CA, USA).

[3] = biological target: T2, MDR1 (p-glycoprotein) in MDA-MB-231 cells (Homo sapiens, UniProt P08183); assay: MDR transporter activity assay, MDR1 in MDA-MB-231; assay type: cell-based; settings: 24 h
T2 construct: endogenous in cells; host or cells: MCF-7 and MDA-MB-231 cells
T2 sequence (P08183 whole entry): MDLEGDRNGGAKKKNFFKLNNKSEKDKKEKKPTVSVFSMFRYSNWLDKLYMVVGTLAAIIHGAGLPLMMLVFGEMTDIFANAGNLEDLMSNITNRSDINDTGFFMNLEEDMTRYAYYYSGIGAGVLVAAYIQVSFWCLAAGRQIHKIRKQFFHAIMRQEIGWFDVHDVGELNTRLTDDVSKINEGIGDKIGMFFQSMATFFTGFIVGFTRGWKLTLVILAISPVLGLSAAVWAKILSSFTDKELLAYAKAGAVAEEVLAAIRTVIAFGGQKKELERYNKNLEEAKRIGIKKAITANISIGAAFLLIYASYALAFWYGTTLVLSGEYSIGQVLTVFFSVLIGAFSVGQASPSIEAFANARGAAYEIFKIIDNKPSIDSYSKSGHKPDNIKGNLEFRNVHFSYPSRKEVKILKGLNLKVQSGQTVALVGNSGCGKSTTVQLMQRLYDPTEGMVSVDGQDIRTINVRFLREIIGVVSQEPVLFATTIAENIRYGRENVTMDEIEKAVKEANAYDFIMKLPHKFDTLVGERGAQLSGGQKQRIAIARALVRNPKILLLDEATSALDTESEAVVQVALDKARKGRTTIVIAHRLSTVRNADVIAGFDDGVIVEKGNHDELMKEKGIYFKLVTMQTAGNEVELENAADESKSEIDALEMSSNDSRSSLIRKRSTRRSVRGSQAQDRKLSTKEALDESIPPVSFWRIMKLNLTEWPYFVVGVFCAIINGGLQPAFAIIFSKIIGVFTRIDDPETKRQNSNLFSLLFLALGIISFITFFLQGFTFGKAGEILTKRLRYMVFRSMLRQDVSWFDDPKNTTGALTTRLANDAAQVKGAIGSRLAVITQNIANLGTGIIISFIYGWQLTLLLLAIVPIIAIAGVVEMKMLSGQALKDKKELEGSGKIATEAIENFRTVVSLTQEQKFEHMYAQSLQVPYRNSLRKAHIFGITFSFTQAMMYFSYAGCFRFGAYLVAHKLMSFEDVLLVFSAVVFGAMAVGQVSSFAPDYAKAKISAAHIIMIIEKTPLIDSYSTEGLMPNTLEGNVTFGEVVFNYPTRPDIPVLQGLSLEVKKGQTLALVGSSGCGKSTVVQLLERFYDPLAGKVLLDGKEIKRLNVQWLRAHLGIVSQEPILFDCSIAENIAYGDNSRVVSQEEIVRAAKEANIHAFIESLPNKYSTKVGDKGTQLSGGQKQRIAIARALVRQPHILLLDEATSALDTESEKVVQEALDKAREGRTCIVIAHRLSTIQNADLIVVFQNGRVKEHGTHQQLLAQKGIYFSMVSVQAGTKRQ
Description: (§3) An MDR Assay kit (Abcam, Cambridge, UK) was used following the manufacturer’s instructions. MCF-7 and MDA-MB-231 cells were incubated with compounds 1–3 (10 μg/mL and 20 μg/mL). After 24 h of incubation, the test cells were washed twice with 5 mL of PBS by centrifugation at 1200 rpm for 10 min. The supernatants were discarded and the cells were counted using a Scepter 3.0 handheld automated cell counter (Milipore, Burlington, MA, USA). Then, each of the tested samples was divided into three parts and analyzed. Tomeasure the activity of MDR1, MRP1 and BCRP (tubes 1–12), 5 μL of verapamil (MDR1 inhibitor) was added into tubes 1–3, 5 μL of MK-571 (MRP1 inhibitor) was added into tubes 4–6, 5 μL of noviobiocin (BCRP inhibitor) was added into tubes 7–9 and 125 μL DMEM with 1 μL of DMSO was added into tubes 10–12. Then, the samples were incubated at 37 °C for five minutes. After this time, 125 μL of Efflux Green Detection Reagent was added into tubes 1–12 and the samples were incubated for 30 min at 37 °C. After 25 min of incubation, 5 μL of PI was added to each tube. Thereafter, the samples were centrifuged for 10 min at 1200 rpm. The supernatants were discarded and the cells were resuspended in 500 μL of PBS and run on the flow cytometer immediately. Measurements were conducted on a BD FACSCanto II flow cytometer using FACSDiva software (version 6.1.3, BD Biosciences, San Diego, CA, USA). […] The calculations followed these formulas:MAFMDR1= 100 × (FMDR1 − F0)/FMDR1 MAFMRP= 100 × (FMRP − F0)/FMRP MAFBCRP= 100 × (FBCRP − F0)/FBCRP
(§4) • FMDR—MFI with MDR1 inhibitor (verapamil) • FMRP—MFI with MRP inhibitor (MK-571) • FBCRP—MFI with BCRP inhibitor (novobiocin) • F0—MFI without inhibitor
(§5) The theoretical range of the MAF values is between 0 and 100.

[4] = system: MRP1/2 in MDA-MB-231 cells; assay: MDR transporter activity assay, MRP in MDA-MB-231; assay type: cell-based, human; settings: 24 h
Description: as §3, §4, §5

[5] = biological target: T3, MDR1 (p-glycoprotein) in MCF-7 cells (Homo sapiens, UniProt P08183); assay: MDR transporter activity assay, MDR1 in MCF-7; assay type: cell-based; settings: MCF-7, 10 µg/mL, 24 h
T3 construct: endogenous in cells; host or cells: MCF-7 and MDA-MB-231 cells
T3 sequence (P08183 whole entry): as above
Description: as §1

[6] = system: MDA-MB-231 cells; assay: Annexin V/propidium iodide flow cytometry (apoptosis), MDA-MB-231; assay type: cell-based, human; settings: MDA-MB-231, 24 h, concentration not given
Excerpt: as §2

MAF BCRP [1]	MAF MDR1 ([3]; MDA-MB-231, 20 µg/mL)	MAF MDR1 (multidrug resistance activity factor) [5]	MAF MDR1 ([3]; MDA-MB-231, 10 µg/mL)	SMILES	apoptotic cells [2] [%]	MAF MRP ([4]; MDA-MB-231, 20 µg/mL)	apoptotic cells [6] [%]	MAF MRP ([4]; MDA-MB-231, 10 µg/mL)
7.0	< 20	5.7	–	O=C(NNC(=S)Nc1ccc(/N=N/c2ccccc2)cc1)c1ccccc1[N+](=O)[O-] [Compound 3]	~68	< 20	–	–
15.4	11.1	9.1	13.3	O=C(Cc1cccc2ccccc12)NNC(=S)Nc1ccc(/N=N/c2ccccc2)cc1 [Compound 2]	–	1.8	70	7.0
